# In ChEMBL document CHEMBL1145789, “Benzoylalanine-derived ketoamides carrying vinylbenzyl amino residues: discovery of potent water-soluble calpain inhibitors with oral bioavailability” (J Med Chem, 2003):
# Molecular target: T1, Calpain-1 catalytic subunit (Homo sapiens, UniProt P07384)
# T1 sequence (P07384 whole entry): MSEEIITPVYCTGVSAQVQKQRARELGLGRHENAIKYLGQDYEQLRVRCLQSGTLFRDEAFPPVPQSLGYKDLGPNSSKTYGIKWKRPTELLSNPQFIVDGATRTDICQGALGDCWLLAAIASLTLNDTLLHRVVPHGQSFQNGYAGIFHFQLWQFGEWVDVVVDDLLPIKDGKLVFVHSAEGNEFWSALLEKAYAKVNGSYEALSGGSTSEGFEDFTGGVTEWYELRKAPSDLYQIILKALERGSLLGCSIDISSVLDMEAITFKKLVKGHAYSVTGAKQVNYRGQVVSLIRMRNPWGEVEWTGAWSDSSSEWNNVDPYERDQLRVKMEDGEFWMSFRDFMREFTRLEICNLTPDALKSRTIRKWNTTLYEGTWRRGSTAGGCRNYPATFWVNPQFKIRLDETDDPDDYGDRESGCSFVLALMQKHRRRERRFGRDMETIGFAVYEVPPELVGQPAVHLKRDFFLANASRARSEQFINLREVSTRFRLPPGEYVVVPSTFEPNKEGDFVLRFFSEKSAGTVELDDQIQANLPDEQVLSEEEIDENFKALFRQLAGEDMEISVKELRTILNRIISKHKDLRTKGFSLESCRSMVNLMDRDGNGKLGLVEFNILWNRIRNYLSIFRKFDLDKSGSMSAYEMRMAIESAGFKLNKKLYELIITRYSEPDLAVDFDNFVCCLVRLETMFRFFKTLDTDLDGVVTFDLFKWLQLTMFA
# Assay: Inhibitory activity against human Calpain 1 isolated from erythrocytes
# Type: cell-free
compound,measurement,value
O=CC(Cc1ccccc1)NC(=O)c1ccccc1/C=C/c1cccc2ccccc12 (stereo unspecified),Ki,15 nM
